Experimental data published in US9011927B2, “Pentablock polymers” (The Curators of the University of Missouri, priority 2010, dated 2015).

How the values were obtained:
Format in all cases: cell-based
[1] = tested on: SIRC (rabbit corneal cell line); experiment: MTS assay on Pentablock Polymer A, SIRC; conditions: Triton X positive control
Method: (§1) The cytotoxicity and biocompatibility of the Pentablock Polymer A and Pentablock Polymer B were investigated in several cell lines. ARPE-19 (human retinal pigment epithelial cell line), SIRC (rabbit corneal cell line), and RAW 264.7 (mouse macrophage cell line) were obtained from American Type Culture Collection (“ATCC”). ARPE-19 cells were cultured in Dubelcco's modified Eagle's medium (“DMEM/F12”) supplemented with 10% fetal bovine serum (“FBS”), 100 U/mL penicillin and 100 μg/mL of streptomycin. SIRC cells were cultured in minimum essential medium (“MEM”) and supplemented with 10% FBS, 100 U/mL of penicillin and 100 μg/mL of streptomycin. RAW 264.7 (Mouse macrophage cells) cells were cultured in DMEM/F12supplemented with 10% FBS, 10% of nonessential amino acids, 100 U/mL penicillin and 100 μg/mL of streptomycin. The pH of the medium was adjusted to 7.4 and cells were incubated in humidified atmosphere at 37° C. temperature with 5% CO2 environment. The cell cultures were exposed directly to different concentrations of Pentablock Polymer A and Pentablock Polymer B. […]
(§2) MTS assay is based on the reduction of the tetrazolium salt (yellow) to fromazone (purple) by mitochondrial enzymes of metabolic active cells. […] After incubation, the absorbance of each well was measured at 450 nm by ELISA plate reader. The absorbance is directly proportional to viability of cells.

PCEC = experiment: MTS assay on Pentablock Polymer B, PCEC; conditions: Triton X positive control
Method: Pentablock Polymer B: Cytotoxicity for Pentablock Polymer B was performed at different concentration ranging from 0.5-10 mg/ml. The plates were seeded with cell density of 10,000 cells/100 μL. After 24 hours of incubation fresh medium containing hydrogel of different concentration ranging from 0.5-10 mg/ml were added and further incubated for 24 hours. MTS assay is based on the reduction of the tetrazolium salt (yellow) to fromazone (purple) by mitochondrial enzymes of metabolic active cells. The amount of the fromazone is directly proportional to viable cells. In MTS assay Trioton X treated cells were served as […]. […] After incubation, the absorbance of each well was measured at 450 nm by ELISA plate reader. The absorbance is directly proportional to viability of cells.

[2] = tested on: RAW 264.7 (mouse macrophage cell line); experiment: MTS assay on Pentablock Polymer A, RAW 264.7; conditions: RAW 264.7, Triton X positive control
Method: as §1, §2

[3] = tested on: ARPE-19 (human retinal pigment epithelial cell line); experiment: MTS assay on Pentablock Polymer B, ARPE 19; conditions: ARPE 19, Triton X positive control
Method: The cytotoxicity and biocompatibility of the Pentablock Polymer A and Pentablock Polymer B were investigated in several cell lines. ARPE-19 (human retinal pigment epithelial cell line), SIRC (rabbit corneal cell line), and RAW 264.7 (mouse macrophage cell line) were obtained from American Type Culture Collection (“ATCC”). ARPE-19 cells were cultured in Dubelcco's modified Eagle's medium (“DMEM/F12”) supplemented with 10% fetal bovine serum (“FBS”), 100 U/mL penicillin and 100 μg/mL of streptomycin. SIRC cells were cultured in minimum essential medium (“MEM”) and supplemented with 10% FBS, 100 U/mL of penicillin and 100 μg/mL of streptomycin. RAW 264.7 (Mouse macrophage cells) cells were cultured in DMEM/[…] with 10% FBS, 10% of nonessential amino acids, 100 U/mL penicillin and 100 μg/mL of streptomycin. […] The cell cultures were exposed directly to different concentrations of Pentablock Polymer A and Pentablock Polymer B. Pentablock Polymer B: Cytotoxicity for Pentablock Polymer B was performed at different concentration ranging from 0.5-10 mg/ml. The plates were seeded with cell density of 10,000 cells/100 μL. […] After incubation, the absorbance of each well was measured at 450 nm by ELISA plate reader. The absorbance is directly proportional to viability of cells.

Substance: Triton X
- MTS assay (absorbance proportional to viability of cells) [1]: 0
- MTS assay (absorbance proportional to viability of cells) (PCEC): 0.000
- MTS assay (absorbance proportional to viability of cells) [2]: 0
- MTS assay (absorbance proportional to viability of cells) [3]: 0.000
